In patent US6683061B1, “Enzyme catalyzed therapeutic activation” (NewBiotics, Inc., priority 1999, dated 2004):
Like-named read-outs stand apart in the source and are kept apart here.

How the values were obtained:
MCF7TDX [1] = assay: AlamarBlue cell proliferation assay; type: cell-based, human; conditions: 120 hours drug exposure
Experimental: (§1) Cells growing exponentially were transferred to 384-well flat bottom tissue culture plates. All cell types were plated at a density of 500 cells per well in 25 μL of complete medium (RPMI 1640+10% fetal bovine serum+antibiotics/antimycotics). After 24 hours (day 0), 25 μL of complete medium containing the compounds over the dose range of 10^−3 to 10^−10 M were added in triplicate. Drug exposure time was 120 hours (day 5), after which growth inhibition was assayed. 5 μL of the redox indicator, alamarBlue, was added to each well (10% v/v). After 4 hours incubation at 37° C., fluorescence was monitored at 535 nm excitation and 595 nm emission.
(§2) Numbering in Tables 5 and 6 refer to the structures, shown infra. Results from testing using the alamarBlue assay are shown in Table 5, and results from crystal violet based assays are shown in Table 6. MCF7-TDX was derived from MCF7 breast tumor cells via selection in cell culture in the presence of Tomudex, a direct inhibitor of TS. Such selection often results in high intracellular levels of TS (Freemantle, S. J. et al. (1995)). Similarly, H630R10 is a 5FU (fluoropyrimidine) resistant colon cancer epithelial cell line derived from H630 colon cancer cells. See, Copur, S. et al. (1995). HT1080, #12, is a fibrosarcoma tumor cell line that expresses high levels of TS via a transgene introduced into HT1080 tumor cells. […]

HT1080 #12 = assay: Crystal violet cell proliferation inhibition assay; type: cell-based; conditions: crystal violet procedure, Table 7; high TS; read-out: Cytotoxic Activity, TS HT1080 #12
From the text: (§3) Numbering in Tables 5 and 6 refer to the structures, shown infra. Results from testing using the alamarBlue assay are shown in Table 5, and results from crystal violet based assays are shown in Table 6. MCF7-TDX was derived from MCF7 breast tumor cells via selection in cell culture in the presence of Tomudex, a direct inhibitor of TS. Such selection often results in high intracellular levels of TS (Freemantle, S. J. et al. (1995)). Similarly, H630R10 is a 5FU (fluoropyrimidine) resistant colon cancer epithelial cell line derived from H630 colon cancer cells. See, Copur, S. et al. (1995). HT1080, #12, is a fibrosarcoma tumor cell line that expresses high levels of TS via a transgene introduced into HT1080 tumor cells. Normal cell lines used in these assays include CCD18co (normal colon epithelium) and Det551 (normal skin).

MCF7TDX [2] = assay: Crystal violet cell proliferation inhibition assay; conditions: read-out: Cytotoxic Activity, MCF7TDX
Experimental: The ability of the test compounds to block proliferation of cells was determined by the crystal violet procedure.
Compounds were dissolved in dimethyl sulfoxide to a concentration of 1M. They were further diluted as necessary into DMEM cell culture medium, and subsequently into the first wells of the 96-well microtiter plate. Each concentration was tested in triplicate on the target cell line. Compound concentrations from 1 μM to 3000 μM were tested. Cells were incubated with compound for 72 hours, the plates were washed, and the cells fixed with methanol and stained with crystal violet as described in Sugarman, B. J. et al. (1985); and Antelman, D. et al. (1995).
The ability of each isolated compound to block cell proliferation was then determined by the crystal violet procedure.
The first two cell lines, TS HT1080 #12 and MCF7TDX express high levels of TS, while the other two, CCD18co and Det551, are normal cells.

Det551 = assay: Crystal violet cell proliferation inhibition assay; type: cell-based, human
From the text: as §3

CCd18co = assay: Crystal violet cell proliferation inhibition assay; type: cell-based, human
From the text: as §3

normal and tumor cells = assay: Cell proliferation assays (alamarBlue, crystal violet), results stated in words; type: cell-based, human; conditions: summary of Tables 5-7
Experimental: as §1
The data in both Tables 5 and 6 indicate that most compounds are active as phosphoramidates and nucleosides. […] Cytotoxicity results with the nucleosides, especially BVdU, NB1020™ (ClVdU) and NB1024™, are surprising since the literature teaches that 5-substituted compounds like BVdU are not efficiently monophosphorylated by human cells unless they express viral thymidine kinase. See, Balzarini, J. et al. (1985) and De Clerq, E. et al. (1997). These authors have proposed that once phosphorylated by the herpesvirus-encoded TK, the 5-substituted nucleotide derivative can bind to the TS enzyme and inactivate it. […] Alternatively, some tumor cells may have an unusually high amount, or form the normal TK enzyme (Suki, S. et al. (1995); and Romain, S. et al. (1995)), leading to a low, but sufficient activation of nucleosides to their corresponding monophosphates.

MCF7 = assay: Amount of nucleoside and monophosphate in cells (HPLC of lysates); type: cell-based, human; conditions: 100 μm BVdU, 2 days treatment
Experimental: (§4) Cells were incubated in complete media with 100 μm BVdU.

H630R10 [3] = assay: as above; type: cell-based, human; conditions: 100 μm BVdU, 2 days treatment
Experimental: as §4

MCF7TDX [4] = assay: as above; type: cell-based, human; conditions: 100 μm BVdU, 2 days treatment
Experimental: as §4

[5] = Crystal violet cell proliferation inhibition assay; type: cell-based, human; conditions: human, crystal violet procedure, Table 7, normal cells
From the text: as §3

H630R10 [6] = assay: AlamarBlue cell proliferation assay; type: cell-based, human; conditions: 120 hours drug exposure
Experimental: as §1, §2

[7] = crystal violet procedure, Table 7, high TS
[8] = crystal violet procedure, Table 7, normal cells, read-out: Cytotoxic Activity, Det551
[9] = crystal violet procedure, Table 7, normal cells, read-out: Cytotoxic Activity, CCD18co

Row | Compound | IC50 (HT1080 #12) | IC50 (MCF7TDX [2]; [7]) | IC50 (Det551; [8]) | IC50 (CCd18co; [9]) | cytotoxic / growth inhibiting activity in words (normal and tumor cells) | other results
1 | 5-(2-Bromovinyl)-2′-Deoxyuridine Phenyl N-Methoxy-L-alaninyl Phosphoramidate [NB1011] | 4.3 µM | 4.2 µM | 263 µM | 461 µM |  | IC50 (MCF7TDX [1]): 2 µM; IC50 (Det551; crystal violet, 72 hours, normal skin, read-out: IC50 Det551): 356 µM; IC50 (CCd18co; crystal violet, 72 hours, normal colon epithelium, read-out: IC50 CCD18co): 408 µM
2 | O=c1[nH]c(=O)n([C@H]2C[C@H](O)[C@@H](CO)O2)cc1/C=C/C=C\Br (single isomer, unassigned; isomer 1) [NB1024 Isomer 1, 5-(4-Bromo-1E,3Z-butadienyl)-2′-dexoyuridine] | 10.1 µM | 9.8 µM |  | > 300 µM | significantly greater growth inhibiting activity | 
3 | O=c1[nH]c(=O)n([C@H]2C[C@H](O)[C@@H](CO)O2)cc1/C=C/C=C/Br (single isomer, unassigned; isomer 2) [NB1024 Isomer 2, 5-(4-Bromo-1E,3E-butadienyl)-2′-dexoyuridine] | > 300 µM | > 300 µM | > 300 µM |  |  | 
4 | O=c1[nH]c(=O)n([C@H]2C[C@H](O)[C@@H](CO)O2)cc1/C=C/Br [BVDU, (E)-5-(2-Bromovinyl)-2′-deoxyuridine] |  |  |  |  |  | BVdU level in cell lysate (MCF7): 90.8 HPLC peak area at 300 nm; BvdUMP/(BVdUMP + BVdU) × 100 (MCF7): 44.2; BVdU level in cell lysate (H630R10 [3]): 26.3 HPLC peak area at 300 nm; BvdUMP/(BVdUMP + BVdU) × 100 (H630R10 [3]): <4; BVdU level in cell lysate (MCF7TDX [4]): 39.0 HPLC peak area at 300 nm; BvdUMP/(BVdUMP + BVdU) × 100 (MCF7TDX [4]): 21.2; IC50 (MCF7TDX [2]; Homo sapiens): < 0.8 µM; IC50 at 72 h ([5]; CCD18co cells (normal colon epithelium), read-out: Cytotoxic Activity, CCD18co): > 1000 µM; IC50 at 72 h ([5]; Det551 cells (normal skin), read-out: Cytotoxic Activity, Det551): > 1000 µM
5 | COC(=O)C(C)NP(=O)(OCC1OC(n2ccc(=O)[nH]c2=O)CC1O)Oc1ccccc1 (centres unmarked) [NB1025] |  |  |  |  | active | IC50 (H630R10 [6]): 192 µM
6 | O=c1ccn(C2CC(O)C(CO)O2)c(=O)[nH]1 (centres unmarked) [NB1026] |  |  |  |  | little detectable activity | 
